Holding throughout (assay type): cell-based, hepatitis C virus
The test system of assay [1] is genotype 1a (H77) wild type transient HCV replicon in Huh-7-derived cells. Nature of the assay: Transient-transfected HCV replicon EC50, genotype 1a wild type. The note with it: Hepatitis C virus, 72 h, transient-transfected replicon genotype 1a wild type, read-out: EC50 1A WT. Background: A replicon is a self-replicating genome or part of one, used to study replication in cells.

Assay [2] has as its system genotype 1b (Con1) wild type transient HCV replicon in Huh-7-derived cells. Description: Transient-transfected HCV replicon EC50, genotype 1b wild type. The note with it: Hepatitis C virus, 72 h, transient-transfected replicon genotype 1b wild type, read-out: EC50 1B WT.
Assay [3] concerns genotype 3a (S52) wild type transient HCV replicon in Huh-7-derived cells. Description: Transient-transfected HCV replicon EC50, genotype 3a wild type. The note with it: Hepatitis C virus; transient-transfected replicon genotype 3a wild type, 72 h; read-out: EC50 3A WT.
The subject of assay [4] is genotype 1b (Con1) stable HCV replicon in Huh-7-derived cells. Nature of the assay: Stable subgenomic HCV replicon EC50, genotype 1b (Renilla luciferase). Particulars: Hepatitis C virus, stable replicon genotype 1b, 72 h, read-out: EC50 1B RLUC. In outline:
(§1)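 Compounds, three-fold diluted, were applied to Huh-7-derived cells harbouring luciferase replicons (genotype 1a H77, 1b Con1, 2a JFH-1, 4a ED43, with strain-specific adaptive mutations). Seventy-two hours later, intracellular replication was gauged by Renilla luciferase activity and EC50 derived by regression.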

Assay [5] deals with genotype 2a (JFH-1) stable HCV replicon in Huh-7-derived cells. Nature of the assay: Stable subgenomic HCV replicon EC50, genotype 2a (Renilla luciferase). Particulars: Hepatitis C virus, stable replicon genotype 2a, 72 h, read-out: EC50 2A RLUC. The method, boiled down:
as §1

The subject of assay [6] is genotype 1a (H77) stable HCV replicon in Huh-7-derived cells. Description: Stable subgenomic HCV replicon EC50, genotype 1a (Renilla luciferase). The note with it: Hepatitis C virus, stable replicon genotype 1a, 72 h, read-out: EC50 1A RLUC. The method, boiled down: as §1
The subject of assay [7] is genotype 1a NS3/4a protease inhibitor resistant variant R155K transient HCV replicon in Huh-7-derived cells. Nature of the assay: Transient-transfected HCV replicon EC50, genotype 1a R155K. Particulars: Hepatitis C virus, 72 h, read-out: EC50 1A R155K, transient-transfected replicon genotype 1a R155K resistant variant, 72 h.
Assay [8] concerns genotype 4a (ED43) stable HCV replicon in Huh-7-derived cells. Nature of the assay: Stable subgenomic HCV replicon EC50, genotype 4a (Renilla luciferase). The note with it: Hepatitis C virus, 72 h, read-out: EC50 4A RLUC. In outline: as §1
For assay [9], the system named is genotype 3a (S52) stable HCV replicon in Huh-7-derived cells. Nature of the assay: Stable subgenomic HCV replicon EC50, genotype 3a (Renilla luciferase). Particulars: Hepatitis C virus, 72 h, read-out: EC50 3A RLUC.
Assay [10] deals with genotype 1b NS3/4a protease inhibitor resistant variant D168A transient HCV replicon in Huh-7-derived cells. Nature of the assay: Transient-transfected HCV replicon EC50, genotype 1b D168A. Particulars: Hepatitis C virus, 72 h, read-out: EC50 1B D168A, transient-transfected replicon genotype 1b D168A resistant variant, 72 h.

Broadly, the EC50 is the concentration needed to bring the measured effect to its halfway point.

`C=C[C@@H]1C[C@]1(NC(=O)[C@@H]1[C@H](CC)[C@@H]2CN1C(=O)[C@H](C(C)(C)C)NC(=O)O[C@@H]1C[C@H]1CCCCC(F)(F)c1nc3ccc(OC)cc3nc1O2)C(=O)NS(=O)(=O)C1CC1` [Example 92, (1aR,5S,8S,9S,10R,22aR)-5-tert-butyl-N-{(1R,2S)-1-[(cyclopropylsulfonoyl)carbamoyl]-2-ethenylcyclopropyl}-9-ethyl-18,18-difluoro-14-methoxy-3,6-dioxo-1,1a,3,4,5,6,9,10,18,19,20,21,22,22a-tetradecahydro-8H-7,10-methanocyclopropa[18,19][1,10,3,6]dioxadiazacyclononadecino[11,12-b]quinoxaline-8-carboxamide]: the EC50 in [1] came to 3 nM; in assay [2], 1.7 nM; in assay [3] it was 8 nM; in assay [4], 3.2 nM; in [5], 4.6 nM; in [6], 3.3 nM. For the same compound, the EC50 in assay [7] stood at 3 nM; in assay [8], 3.2 nM; in assay [9], 58 nM; in assay [10] it was 5.3 nM.

Consider `CC[C@@H]1[C@@H]2CN(C(=O)[C@H](C(C)(C)C)NC(=O)O[C@@H]3C[C@H]3CCCCCc3nc4ccc(OC)cc4nc3O2)[C@@H]1C(=O)N[C@]1(C(=O)NS(=O)(=O)C2(Cl)CC2)C[C@H]1C(F)F` [Example 75, (1aR,5S,8S,9S,10R,22aR)-5-tert-butyl-N-[(1R,2R)-1-{[(1-chlorocyclopropyl)sulfonyl]carbamoyl}-2-(difluoromethyl)cyclopropyl]-9-ethyl-14-methoxy-3,6-dioxo-1,1a,3,4,5,6,9,10,18,19,20,21,22,22a-tetradecahydro-8H-7,10-methanocyclopropa[18,19][1,10,3,6]dioxadiazacyclononadecino[11,12-b]quinoxaline-8-carboxamide], for which the EC50 in assay [1] stood at 14 nM; in assay [2], 3.5 nM; in [3], 56 nM; in assay [4], 6.4 nM; in assay [5], 18 nM; in [6], 9.9 nM. The EC50 in assay [7] came to 45 nM; in [8], 10 nM; in assay [9], 240 nM; in assay [10] it was 51 nM.

`CC[C@@H]1[C@@H]2CN(C(=O)[C@H](C(C)(C)C)NC(=O)O[C@@H]3C[C@H]3CCCCC(F)(F)c3nc4ccc(OC)cc4nc3O2)[C@@H]1C(=O)NC1(C(=O)NS(=O)(=O)C2CC2)C[C@H]1C(F)F` (stereo partly drawn) [Example 94, (1aR,5S,8S,9S,10R,22aR)-5-tert-butyl-N-[(2R)-1-[(cyclopropylsulfonyl)carbamoyl]-2-(difluoromethyl)cyclopropyl]-9-ethyl-18,18-difluoro-14-methoxy-3,6-dioxo-1,1a,3,4,5,6,9,10,18,19,20,21,22,22a-tetradecahydro-8H-7,10-methanocyclopropa[18,19][1,10,3,6]dioxadiazacyclononadecino[1,12-b]quinoxaline-8-carboxamide]: the EC50 came out at 3.2 nM in [1]; 1.9 nM in assay [2]; 10 nM in assay [3]; 5.2 nM in [4]; 3.3 nM in assay [5]; 3.8 nM in assay [6]. Besides, the EC50 came to 3.1 nM in assay [7], 3 nM in [8], 32 nM in [9] and 9.2 nM in [10].

Turning to `CC[C@@H]1[C@@H]2CN(C(=O)[C@H](C(C)(C)C)NC(=O)O[C@@H]3C[C@H]3CCCCC(F)(F)c3nc4ccc(OC)cc4nc3O2)[C@@H]1C(=O)N[C@]1(C(=O)NS(=O)(=O)C2(C)CC2)C[C@H]1CC(F)F` [Example 35, (1aR,5S,8S,9S,10R,22aR)-5-tert-butyl-N-[(1R,2S)-2-(2,2-difluoroethyl)-1-{[(1-methylcyclopropyl)sulfonyl]carbamoyl}cyclopropyl]-9-ethyl-18,18-difluoro-14-methoxy-3,6-dioxo-1,1a,3,4,5,6,9,10,18,19,20,21,22,22a-tetradecahydro-8H-7,10-methanocyclopropa[18,19][1,10,3,6]dioxadiazacyclononadecino[11,12-b]quinoxaline-8-carboxamide], the EC50 is 12 nM in [1]; 10 nM in assay [2]; 35 nM in [3]; 11 nM in assay [4]; 7.4 nM in assay [5]; 9.1 nM in assay [6]. For the same compound, the EC50 was found to be 17 nM in assay [7], 7.6 nM in [8], 162 nM in assay [9] and 38 nM in [10].

On to `CC[C@@H]1[C@@H]2CN(C(=O)[C@H](C(C)(C)C)NC(=O)O[C@@H]3C[C@H]3CCCCC(F)(F)c3nc4ccc(OC(F)F)cc4nc3O2)[C@@H]1C(=O)N[C@]1(C(=O)NS(=O)(=O)C2(C)CC2)C[C@H]1C(F)F` [Example 85, (1aR,5S,8S,9S,10R,22aR)-5-tert-butyl-14-(difluoromethoxy)-N-[(1R,2R)-2-(difluoromethyl)-1-{[(1-methylcyclopropyl)sulfonyl]carbamoyl}cyclopropyl]-9-ethyl-18,18-difluoro-3,6-dioxo-1,1a,3,4,5,6,9,10,18,19,20,21,22,22a-tetradecahydro-8H-7,10-methanocyclopropa[18,19][1,10,3,6]dioxadiazacyclononadecino[11,12-b]quinoxaline-8-carboxamide], for which the EC50 in assay [1] was determined as 12 nM; in assay [2] it was 7 nM; in assay [3], 101 nM; in assay [4], 17 nM; in [5], 7.7 nM; in assay [6] it was 16 nM. The EC50 is 22 nM in assay [7], 9.2 nM in [8], 304 nM in [9] and 57 nM in [10].

For the compound `COc1ccc2nc3c(nc2c1)O[C@H]1CN(C(=O)[C@H](C(C)(C)C)NC(=O)O[C@@]2(C)C[C@@H]2CCCCC3(F)F)[C@H](C(=O)N[C@]2(C(=O)NS(=O)(=O)C3(C)CC3)C[C@H]2C(F)F)[C@@H]1C` [Example 77, (1 aS,5S,8S,9S,10R,22aS)-5-tert-butyl-N-[(1R,2R)-2-(difluoromethyl)-1-{[(1-methylcyclopropyl)sulfonyl]carbamoyl}cyclopropyl]-18,18-difluoro-14-methoxy-1a,9-dimethyl-3,6-dioxo-1,1a,3,4,5,6,9,10,18,19,20,21,22,22a-tetradecahydro-8H-7,10-methanocyclopropa[18,19][1,10,3,6]dioxadiazacyclononadecino[11,12-b]quinoxaline-8-carboxamide], the EC50 in assay [1] amounted to 21 nM; in assay [2] it was 5 nM; in [3] it was 472 nM; in assay [4] it was 12 nM; in assay [5], 29 nM; in [6] it was 23 nM. Further, the EC50 in [7] was 34 nM; in assay [8], 16 nM; in [9] it was 741 nM; in assay [10], 80 nM.

(Values after patent US10335409B2 (priority 2012, dated 2019).)
